According to US20080221150A1, “Prevention of Neurodegeneration by Macrolide Antibiotics” (priority 2005, published 2008):
“Also recorded” adds a separate entry of the source.

How the values were obtained:
[1] = tested on: cerebellar granule neurons (CGNs); assay: Cell viability via Calcein AM fluorogenic conversion assay; conditions: for chloroquine-induced decrease in viability / cell death: 1 nM macrolide + 20 μM chloroquine; for effect on staurosporine-induced decrease in viability: 1 nM bafilomycin A1 + 0.1 μM staurosporine
Protocol: (§1) Cerebellar granule neurons (CGNs) were isolated from postnatal day 7 mice as previously described^40. CGNs were plated in poly-L-lysine coated plates at a density of 1250 cells per mm^2. 48 well plates were used for viability and caspase activity assays; 100 mm dishes were used for western blot analysis; and 4 well […] chamber slides (Agene) were used for analysis of vacuolar acidification.
(§2) CGNs were treated in vitro on day 4. […] Separate cultures of CGNs were also treated for 24 h with staurosporine (0.1 μM), in the presence or absence of BafA1 (1-10 nM final).
(§3) Cell viability (via Calcein AM fluorogenic conversion assay; Molecular Probes, Eugene, Oreg.) and caspase-3-like activity (via fluorogenic DEVD cleavage assay) were performed as previously described 40 and were expressed relative to untreated controls.

caspase-3-like activity = assay: Caspase-3-like activity via fluorogenic DEVD cleavage assay in CGNs; format: cell-based, mice
Protocol: as §1, §2, §3

[2] = Cell viability via Calcein AM fluorogenic conversion assay; conditions: mouse
Protocol: as §1, §2, §3

p18 Bax = assay: Western blot of p18 Bax in CGNs; format: cell-based, mice
Protocol: as §1
CGNs were treated in vitro on day 4. […]
Cells were detached from their substrate by incubation for 5 min at 37° C. with Accutase (Innovative Cell Technologies, San Diego, Calif.). Conditioned media and cells were centrifuged (700×g, 5 min, 4° C.). The supernatant was aspirated and re-suspended with 1 ml ice-cold PBS, then centrifuged again (700×g, 5 min, 4° C.). The resultant pellet was re-suspended in lysis buffer containing 25 mM HEPES, 5 mM EDTA, 5 mM MgCl2, 1% SDS, 1% Triton X-100, 1 mM PMSF, 1% protease inhibitor cocktail and 1% phosphatase inhibitor cocktail (Sigma). Cell lysates were sonicated to shear DNA and then centrifuged (10,000 rpm, 10 min, 4° C.), and the resultant supernatant (cleared whole cell lysates) was transferred to a fresh tube. Protein levels were determined subsequently via BCA assay (Pierce). […] Signal was detected using Supersignal chemiluminescence (Pierce). […] Blots were scanned for densitometric analysis using Biorad Quantity One® software.

acidic vesicles = assay: Labeling of acidic vesicles in CGNs with Lysotracker Red (LTR); format: cell-based, mice
Protocol: as §1, §2
(§4) Conditioned media was removed from CGNs grown in 4 well, permanox chamber slides. LTR (0.05 μM; Molecular Probes, Eugene, Oreg.) and Calcein AM (2.5 μg/ml; Molecular Probes, Eugene, Oreg.) were prepared in Locke's Buffer and added to each well for 30 min, 37° C. After this incubation the cells were washed with Locke's Buffer and cover-slipped. Images were captured using a Carl Zeiss Axioskop microscope equipped with epifluorescence.

cleaved caspase-3 = assay: Western blot of cleaved caspase-3 in CGN lysates; format: cell-based, mice
Protocol: as §1, §2
Cells were detached from their substrate by incubation for 5 min at 37° C. with Accutase (Innovative Cell Technologies, San Diego, Calif.). Conditioned media and cells were centrifuged (700×g, 5 min, 4° C.). The supernatant was aspirated and re-suspended with 1 ml ice-cold PBS, then centrifuged again (700×g, 5 min, 4° C.). The resultant pellet was re-suspended in lysis buffer containing 25 mM HEPES, 5 mM EDTA, 5 mM MgCl2, 1% SDS, 1% Triton X-100, 1 mM PMSF, 1% protease inhibitor cocktail and 1% phosphatase inhibitor cocktail (Sigma). Cell lysates were sonicated to shear DNA and then centrifuged (10,000 rpm, 10 min, 4° C.), and the resultant supernatant (cleared whole cell lysates) was transferred to a fresh tube. Protein levels were determined subsequently via BCA assay (Pierce). Equal amounts of protein were resolved via SDS-PAGE and transferred to PVDF. After transfer blots were cut in half at approximately 37 kDa. […] Blots were blocked for 1 h, RT (5% milk), followed by overnight incubation with primary antibody. Blots were washed with 1×TBS containing 0.1% Tween 20, then incubated with secondary antibody (goat anti-rabbit IgG, Biorad) for 1 h, RT and subsequently washed. Signal was detected using Supersignal chemiluminescence (Pierce). […] Blots were scanned for densitometric analysis using Biorad Quantity One® software.

LC3 = assay: Western blot of LC3 processing (LC3-I, LC3-II) in CGN lysates; format: cell-based, mice
Protocol: as §1, §2
Cells were detached from their substrate by incubation for 5 min at 37° C. with Accutase (Innovative Cell Technologies, San Diego, Calif.). Conditioned media and cells were centrifuged (700×g, 5 min, 4° C.). The supernatant was aspirated and re-suspended with 1 ml ice-cold PBS, then centrifuged again (700×g, 5 min, 4° C.). The resultant pellet was re-suspended in lysis buffer containing 25 mM HEPES, 5 mM EDTA, 5 mM MgCl2, 1% SDS, 1% Triton X-100, 1 mM PMSF, 1% protease inhibitor cocktail and 1% phosphatase inhibitor cocktail (Sigma). Cell lysates were sonicated to shear DNA and then centrifuged (10,000 rpm, 10 min, 4° C.), and the resultant supernatant (cleared whole cell lysates) was transferred to a fresh tube. Protein levels were determined subsequently via BCA assay (Pierce). Equal amounts of protein were resolved via SDS-PAGE and transferred to PVDF. After transfer blots were cut in half at approximately 37 kDa. […] Blots were blocked for 1 h, RT (5% milk), followed by overnight incubation with primary antibody. Blots were washed with 1×TBS containing 0.1% Tween 20, then incubated with secondary antibody (goat anti-rabbit IgG, Biorad) for 1 h, RT and subsequently washed. Signal was detected using Supersignal chemiluminescence (Pierce). After detection of cleaved caspase-3, the bottom blot was stripped using Restore Western Blot stripping buffer (Pierce) then probed with rabbit anti-LC3 (provided by Uchiyama laboratory), using the same western blot protocol as described above. Blots were scanned for densitometric analysis using Biorad Quantity One® software.

vacuolar ATPase = conditions: cited from earlier work
[3] = tested on: cerebellar granule neurons (CGNs); assay: Viable CGNs by viability marker calcein AM during LTR labeling; format: cell-based, mice; conditions: 24 h
Protocol: as §1, §2, §4

Bid = assay: Cleavage of Bid in CGNs; format: cell-based, mice; conditions: chloroquine; data not shown
[4] = + chloroquine 20 μM for 24 hours, wild-type CGNs
[5] = 10 nM bafilomycin A1, 24 hours, Bax deficiency
[6] = bafilomycin A1 by itself, 24 hours
[7] = co-addition with 20 μM chloroquine, 24 hours
[8] = 10 nM bafilomycin A1 by itself, 24 hours
[9] = all concentrations of bafilomycin A1 tested + 20 μM chloroquine, 24 hours
[10] = bafilomycin A1 0.3-10 nM + 20 μM chloroquine, 24 hours

Q: Which “chloroquine-induced decrease in viability / cell death” value ([1]; data not shown) does the source give for CO/C1=C\C(C)=C\[C@@H](C)[C@@H](O)[C@@H](C)C/C(C)=C/C=C/[C@H](OC)[C@@H]([C@@H](C)[C@@H](O)[C@H](C)[C@@]2(O)C[C@@H](OC(=O)/C=C/C(=O)NC3=C(O)CCC3=O)[C@H](C)[C@@H](C(C)C)O2)OC1=O [bafilomycin B1] here?
A: inhibited chloroquine induced cell death

Q: And the “chloroquine-induced decrease in viability / cell death” value ([1]; data not shown, listed as Bafilomycin B1)?
A: attenuated

Q: Which “effect on chloroquine-induced increase in caspase-3-like activity” value (caspase-3-like activity; [4]) does the source give for COC(=O)CC(NC(=O)OC(C)(C)C)C(=O)CF (stereo not shown) [BOC-aspartyl(Ome)-fluoromethyl ketone, reference compound] here?
A: significantly attenuate

Q: What about the “effect on chloroquine-induced death” value [1, 4] of the same compound?
A: did not attenuate

Q: Which caspase-3-like activity (caspase-3-like activity; 0.1 μM staurosporine, data not shown) does the source give for CN[C@@H]1C[C@H]2O[C@@](C)([C@@H]1OC)n1c3ccccc3c3c4c(c5c6ccccc6n2c5c31)C(=O)NC4 [staurosporine, reference compound] here?
A: significantly increases

Q: What about the viability at 24 h, 0.1 μM [2] of the same compound?
A: 44%

Q: Which “increase in p18 Bax levels” value (p18 Bax; 1 nM bafilomycin A1 with chloroquine 20 μM, 24 hours) does the source give for CO/C1=C\C(C)=C\[C@@H](C)[C@@H](O)[C@@H](C)C/C(C)=C/C=C/[C@H](OC)[C@@H]([C@@H](C)[C@@H](O)[C@H](C)[C@@]2(O)C[C@@H](O)[C@H](C)[C@@H](C(C)C)O2)OC1=O [bafilomycin A1] here?
A: inhibits the increase in p18 Bax levels; also recorded: dramatically attenuated

Q: What about the “reduction of chloroquine-induced caspase-3-like activity” value (caspase-3-like activity; 1 nM bafilomycin A1 + 20 μM chloroquine, 24 hours, maximal) of the same compound?
A: 3 fold

Q: And the “increase in caspase-3-like activity in Bax-deficient CGNs” value (caspase-3-like activity; [5])?
A: prevented

Q: And the “concentrations that did not induce caspase-3-like activity” value (caspase-3-like activity; [6])?
A: ≤ 1 nM

Q: And the “concentrations that increased caspase-3-like activity” value (caspase-3-like activity; [6])?
A: ≥ 10 nM

Q: What about the “concentrations that reduced chloroquine-induced increase in caspase-3-like activity” value (caspase-3-like activity; [7]) of the same compound?
A: 0.3 to 1 nM

Q: What about the LTR staining (acidic vesicles; 1 nM bafilomycin A1 + 20 μM chloroquine, 24 h, versus either alone) of the same compound?
A: increase in LTR staining intensity

Q: And the “LTR staining / vacuolar acidification” value (acidic vesicles; 1 nM bafilomycin A1 by itself, 24 h)?
A: did not alter the staining pattern of LTR; also recorded: did not alter vacuolar acidification

Q: And the “LTR staining / vacuolar acidification” value (acidic vesicles; 10 nM bafilomycin A1, presence or absence of chloroquine, 24 h)?
A: prevented any detection of vacuolar acidification by LTR; also recorded: completely prevents LTR staining

Q: And the “concentration at which increase in cleaved caspase-3 was apparent” value (cleaved caspase-3; [6])?
A: 10 nM

Q: What about the “concentrations that attenuated chloroquine-induced increase in cleaved caspase-3” value (cleaved caspase-3; co-treatment with 20 μM chloroquine, 24 hours) of the same compound?
A: ≤ 1 nM

Q: What about the “levels of LC3-II” value (LC3; [8]) of the same compound?
A: dramatic increase

Q: And the “ratio of LC3-II/LC3-I” value (LC3; [8])?
A: increase

Q: What about the “ratio of LC3-II to LC3-I” value (LC3; [9]) of the same compound?
A: reduction

Q: What about the “chloroquine-induced levels of LC3-II” value (LC3; [10]) of the same compound?
A: did not attenuate

Q: What about the “levels of LC3-I” value (LC3; [10]) of the same compound?
A: appeared to increase

Q: And the “levels of LC3-I” value (LC3; bafilomycin A1 by itself, any concentration, 24 hours)?
A: did not change

Q: And the “effect on staurosporine-induced decrease in viability” value ([1]; 24 hours)?
A: not altered

Q: What about the “effect on staurosporine-induced decrease in viability” value ([1]; 24 hours, listed as Bafilomycin A1) of the same compound?
A: did not prevent the decrease in viability

Q: And the viability ([1]; 1 nM bafilomycin A1 + 20 μM chloroquine, 24 hours)?
A: 88%

Q: And the viability ([1]; 10 nM bafilomycin A1 + 0.1 μM staurosporine, 24 hours)?
A: 20%

Q: And the “reduction in viability in Bax-deficient CGNs” value [1, 5]?
A: prevented

Q: What about the “chloroquine-induced decrease in viability” value ([1]; 10-100 nM bafilomycin A1 + 20 μM chloroquine, 24 hours) of the same compound?
A: still attenuated; also recorded: inhibited chloroquine-induced death

Q: What about the “chloroquine-induced decrease in viability” value [1, 9] of the same compound?
A: significantly attenuated

Q: What about the “concentrations that did not decrease viability” value [1, 6] of the same compound?
A: ≤ 1 nM

Q: What about the “concentrations that significantly decreased viability” value [1, 6] of the same compound?
A: ≥ 10 nM

Q: What about the “concentration of maximal attenuation of chloroquine-induced decrease in viability” value [1, 7] of the same compound?
A: 1 nM

Q: What about the “concentrations reported to inhibit vacuolar ATPase” value (vacuolar ATPase) of the same compound?
A: greater than 1 nM

Q: What about the “numbers of viable neurons” value ([3]; 1 nM bafilomycin A1 + 20 μM chloroquine) of the same compound?
A: increased numbers of viable neurons

Q: And the “viability by calcein AM” value ([3]; 1 nM bafilomycin A1 by itself)?
A: nor did it reduce viability

Q: What about the “numbers of viable CGNs” value ([3]; 10 nM bafilomycin A1, presence or absence of chloroquine) of the same compound?
A: decreased numbers of viable CGNs

Q: For CCN(CC)CCCC(C)Nc1ccnc2cc(Cl)ccc12 (stereo not shown) [chloroquine, reference compound], which “amount of p18 Bax” value (p18 Bax; chloroquine 20 μM for 24 hours) is on record?
A: increased

Q: What about the “cleavage of Bid” value (Bid) of the same compound?
A: not increased

Q: And the LTR staining (acidic vesicles; 20 μM chloroquine, 24 hours, surviving CGNs versus control)?
A: greater intensity of LTR staining

Q: And the “cleaved caspase-3 temporal pattern” value (cleaved caspase-3; 20 μM chloroquine, 4-48 hours)?
A: most robust at 16 hours

Q: What about the “levels of LC3-I” value (LC3; 20 μM chloroquine, 24-48 hours, versus control) of the same compound?
A: appeared lower

Q: And the “chloroquine-induced increase in LC3-II in Bax-deficient CGNs” value (LC3; 20 μM chloroquine, 24 hours, Bax deficiency)?
A: did not prevent

Q: And the “time to elevation of LC3-II” value (LC3; 20 μM chloroquine, remained high through 48 hours)?
A: ≤ 4 h

Q: And the viability at 8 h, 20 μM [2]?
A: 93%

Q: And the viability at 24 h, 20 μM [2]?
A: 24%

Q: And the viability at 24 h, 40 μM [2]?
A: 8%

Q: Which “chloroquine-induced decrease in viability / cell death” value ([1]; data not shown) does the source give for C/C=C/[C@H]1O[C@@](O)([C@@H](C)[C@H](O)[C@H](C)[C@H]2OC(=O)/C(OC)=C/C(C)=C/[C@@H](C)[C@@H](O)[C@@H](CC)[C@@H](O)[C@H](C)C/C(C)=C/C=C/[C@@H]2OC)C[C@@H](O)[C@@H]1C [concanamycin] here?
A: inhibited chloroquine induced cell death

Q: With C[C@@H]1C[C@@H]([C@H](O)CC2CC(=O)NC(=O)C2)C(=O)[C@@H](C)C1 [cycloheximide, reference compound] as the compound, how does the “effect on magnitude of cell death induced by chloroquine” value ([1]; cycloheximide 0.1-1 mg/ml with chloroquine, data not shown) read?
A: did not alter
